Test results published in ChEMBL document CHEMBL4390682, “Purification, structural elucidation, antioxidant capacity and neuroprotective potential of the main polyphenolic compounds contained in Achyrocline satureioides (Lam) D.C. (Compositae)” (Bioorg Med Chem, 2019).
pEC50: −log10 of the molar value. The source made the active and inactive calls. The calls are words filed in the database; no cut-off is given here.

Legend:
[1] = Antioxidant activity in pH 7.4 PBS assessed as ABTS+ radical scavenger activity incubated under absence of light for 16 hrs; format: functional
[2] = test system: Brain; assay: Antioxidant activity in Sprague-Dawley rat brain homogenates assessed as inhibition of lipoperoxidation incubated for 40 mins by fluorescence based assay; format: functional, tissue-based
[3] = Antioxidant activity in pH 7.4 PBS assessed as H2O2 oxidation at 50 uM incubated for 10 mins in presence of HRP and H2O2 by UV spectroscopy and HPLC analysis relative to control; format: functional
[4] = Antioxidant activity in pH 7.4 PBS assessed as reactivity against GSH at 50 uM incubated for 10 mins in presence of HRP and H2O2 in presence of 40 uM GSH by HPLC-DAD and HPLC-MS/MS analysis relative to control; format: functional
[5] = organism: Rattus norvegicus; assay: Neuroprotective activity in Sprague-Dawley rat CGN cells assessed as protection against H2O2-induced cytotoxicity by measuring increase in cell viability at 5 to 100 uM pre-incubated for 24 hrs before H2O2 stimulation for 24 hrs by MTT assay; format: functional
[6] = GSH reactivity in pH 7.4 PBS assessed as GSH-adduct formation at 50 uM incubated for 10 mins in presence of HRP and H2O2 in presence of 40 uM GSH by HPLC-DAD and HPLC-MS/MS analysis relative to control; format: physicochemical; conditions: buffer, pH 7.4, 10 min
[7] = GSH reactivity in pH 7.4 PBS assessed as hydroxylated quercetin formation at 50 uM incubated for 10 mins in presence of HRP and H2O2 in presence of 40 uM GSH by HPLC-DAD and HPLC-MS/MS analysis relative to control; format: physicochemical; conditions: buffer, pH 7.4, 10 min

Row | SMILES | pEC50 [1] | pEC50 [2] | Activity [3] | Activity [4] | Activity [5] | Activity [6] | Activity [7]
1 | COc1c(-c2ccc(O)c(O)c2)oc2cc(O)cc(O)c2c1=O [3-O-METHYLQUERCETIN] | 4.35 | 4.13 | 0% | Active | inactive |  | 
2 | O=c1c(O[C@@H]2O[C@H](CO)[C@@H](O)[C@H](O)[C@H]2O)c(-c2ccc(O)c(O)c2)oc2cc(O)cc(O)c12 [ISOQUERCETIN] | 3.82 | 4.03 | 15% | Active | Active |  | 
3 | O=c1cc(-c2ccc(O)c(O)c2)oc2cc(O)cc(O)c12 [LUTEOLIN] | 4.34 | 4.10 | 25% | Active | Active |  | 
4 | O=c1c(O)c(-c2ccc(O)c(O)c2)oc2cc(O)cc(O)c12 [QUERCETIN] | 5.02 | 5.24 | 90% | Active | Active | Active | Active
